Measured values from article PMC6397177, “An uncharacterized FMAG_01619 protein from Fusobacterium mortiferum ATCC 9817 demonstrates that some bacterial macrodomains can also act as poly-ADP-ribosylhydrolases” (Scientific Reports, 2019).

Columns and labels:
[1] = target: T1, hTARG1 (Homo sapiens, UniProt Q9Y530); assay: thermal shift assay, SYPRO Orange; assay type: binding; details: 100 mM phosphate pH 7.0; ligand up to 50 mM
T1 construct: gene OARD1; synthetic gene in pET28a; E. coli Rosetta2(DE3); tag removal not clearly told
T1 sequence (Q9Y530 2-152): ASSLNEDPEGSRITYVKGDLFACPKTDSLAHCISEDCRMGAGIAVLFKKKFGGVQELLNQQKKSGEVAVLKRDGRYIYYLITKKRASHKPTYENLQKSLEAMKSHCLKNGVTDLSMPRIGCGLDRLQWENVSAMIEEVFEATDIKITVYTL

[2] = target: T2, FmTARG1 (Fusobacterium mortiferum, UniProt A0ABN5JAQ3); assay: thermal shift assay, SYPRO Orange; assay type: binding; details: 100 mM phosphate pH 7.0; ligand up to 50 mM
T2 construct: gene C4N19_10685; synthetic gene in pSol-AFV, AFV-tag removed with TEV protease; expressed in E. coli 10G
T2 sequence (A0ABN5JAQ3 2-142 limits assumed): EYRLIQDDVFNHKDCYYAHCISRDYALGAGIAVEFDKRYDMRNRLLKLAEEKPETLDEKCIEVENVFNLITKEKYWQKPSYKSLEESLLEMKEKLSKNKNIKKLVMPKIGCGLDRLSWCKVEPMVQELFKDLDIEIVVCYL

[3] = target: T2, FmTARG1; assay: HPLC deacetylation assay; assay type: biochemical; details: competitive against OAADPr; Bis-Tris pH 7.3, 300 mM NaCl, 25 °C

Compound	dTm [1]	dTm [2]	Ki [3]
Nc1ncnc2c1ncn2[C@@H]1O[C@H](COP(=O)(O)O)[C@@H](O)[C@H]1O [AMP]	AMP and ADP, also bind to both enzymes in a dose-dependent manner	AMP and ADP, also bind to both enzymes in a dose-dependent manner	
Nc1ncnc2c1ncn2[C@@H]1O[C@H](COP(=O)(O)OP(=O)(O)OC[C@H]2OC(O)[C@H](O)[C@@H]2O)[C@@H](O)[C@H]1O (some centres unmarked) [ADPr]			203 ± 10 µM
Nc1ncnc2c1ncn2[C@@H]1O[C@H](COP(=O)(O)OP(=O)(O)O)[C@@H](O)[C@H]1O [ADP]	AMP and ADP, also bind to both enzymes in a dose-dependent manner	AMP and ADP, also bind to both enzymes in a dose-dependent manner	
